Reference: patent publication US6512006B1, “HIV protease inhibitors” (Warner-Lambert Company, priority 1999, dated 2003)

Legend:
[1] = target: HIV protease enzyme (Human immunodeficiency virus type 1 group M subtype B, UniProt P04585); assay: IC50s measured in vitro against HIV protease enzyme at pH 4.7 and 6.2
[2] = target: T1, Recombinant HIV-1 protease (Human immunodeficiency virus type 1 group M subtype B, UniProt P04585); assay: HIV Protease Assay (Ki); type: biochemical; settings: Inhibition of HIV Protease Ki, pH 6.2, 37° C., 40 μM substrate III
T1 construct: Recombinant HIV-1 protease (>96% purity); purchased Bachem Bioscience, Inc. (King of Prussia, Pa.)
Experimental: Recombinant HIV-1 protease (>96% purity) and HIV protease substrate III (the undecapeptide H-His-Lys-Ala-Arg-Val-Leu-Nph-Glu-Ala-Nle-Ser-NH2, 97% purity) were purchased from Bachem Bioscience, Inc. (King of Prussia, Pa.).
The methods employed follow the procedures of Tummino, et al., Archives of Biochemistry and Biophysics, 1995;316:523). […] (total volume, […]). […] The final inhibitor concentrations used were 0 (0.1, 0.2, in some experiments), 0.5, 1, 2, 5, 10, 20, 50, and 100 μM. The solution was mixed, incubated for 5 minutes and the reaction quenched by addition of trifluoracetic acid, 2% final. The (leu-p-nitro-phe) bond of the substrate is cleaved by the enzyme and substrate and products separated by reverse-phase HPLC (high pressure liquid chromatography). Absorbance was measured at 220 nm, peak areas determined, and percentage conversion to product used to calculate percentage control (=[% conversion (+inhibitor)/% conversion (−inhibitor)]×100).
Ki means inhibitory constant; it approximately the equilibrium binding constant for the binding of the inhibitor to the free enzyme.

[3] = system: HIV infected lymphocyte derived CEM cells; assay: Cellular Infection Assay, XTT cytopathic procedure in CEM cells (antiviral efficacy); type: cell-based; settings: Human immunodeficiency virus 1, CCRF-CEM, read-out: Antiviral Efficacy EC50, CEM cells, 50% protection against HIV cytopathic effects
Experimental: Compounds were tested in lymphocyte derived CEM cells using the XTT cytopathic procedures and were performed at Southern Research Institute (Buckheit, et al., Antiviral Res., 1993;21:247; see also Weislow, et al., J. Nat. Cancer Inst., 1989;81:577). Compound concentrations were 0.32, 1, 3.2, 10, 32, and 100 μM. The EC50 represents the concentration of agent, which reduces HIV cytopathic effects 50% relative to untreated control. Cellular toxicity of the agents are estimated from the TC50 which represents the concentration of the agent which inhibits 50% of the viability of uninfected cells.
EC50 indicates the concentration of the drug which provide 50% protection against HIV.

[4] = Cellular toxicity in uninfected CEM cells (XTT); type: cell-based; settings: human, uninfected CEM cells (lymphocyte derived), cytotoxicity in 50% of uninfected CEM cells; read-out: TC50 (the source's name)
Experimental: Compound concentrations were 0.32, 1, 3.2, 10, 32, and 100 μM.

Row | Compound | melting point [°C] | also measured
1 | CCCN(C1=C(O)CC(CCc2ccc(O)cc2)(C2CCCC2)OC1=O)c1cccc(NS(=O)(=O)c2ccc(C(F)(F)F)cn2)c1 (stereo not drawn) | 104 to 106 | 
2 | CCCCN(C1=C(O)CC(CCc2cccc(O)c2)(C2CCCC2)OC1=O)c1ccccc1 (stereo not drawn) | 64 to 66 | 
3 | CCCN(C1=C(O)CC(CCc2ccc(N)cc2)(C(C)C)OC1=O)c1cccc(NS(=O)(=O)c2ccc(C(F)(F)F)cn2)c1 (stereo not drawn) | 170 to 172 | 
4 | CCCN(C1=C(O)CC(CCc2ccccc2)(C(C)C)OC1=O)c1ccccc1 (stereo not drawn) | 160 to 162 | 
5 | CCCN(C1=C(O)CC(CCc2ccc(O)cc2)(C2CCCC2)OC1=O)c1ccccc1 (stereo not drawn) | 95 | 
6 | O=C1OC(CCc2cccc(O)c2)(C2CCCC2)CC(O)=C1N(c1ccccc1)c1ccccc1 (stereo not drawn) | 90 to 92 | 
7 | CC(C)C1(CCc2ccc(O)cc2)CC(O)=C(N(c2ccccc2)C2CCCCC2)C(=O)O1 (stereo not drawn) | 104 to 106 | 
8 | Cc1ccc(C(C)(C)C)c(Sc2c(O)cc(-c3ccccc3)oc2=O)c1 |  | IC50 ([1]; pH (4.7)): 28 nM; IC50 ([1]; pH (6.2)): 280 nM
9 | Cc1ccc(C(C)(C)C)c(SC2=C(O)CC(CCc3ccccc3)(c3ccccc3)OC2=O)c1 (stereo not drawn) |  | IC50 ([1]; pH (4.7)): 10 nM; IC50 ([1]; pH (6.2)): 35 nM
10 | CCCCN(C1=C(O)CC(CCc2ccc(O)cc2)(C(C)C)OC1=O)c1ccccc1 (stereo not drawn) [15] | 69 to 71 | 
11 | CCCN(C1=C(O)CC(CCc2ccccc2)(C(C)C)OC1=O)c1cccc(NS(=O)(=O)c2ccc(C(F)(F)F)cn2)c1 (stereo not drawn) [Example 1, 5-Trifluoromethyl-pyridine-2-sulfonic acid {3-[(4-hydroxy-6-isopropyl-2-oxo-6-phenethyl-5,6-dihydro-2H-pyran-3-yl)-propyl-amino]-phenyl}-amide] |  | Ki [2]: 0.029 nM; EC50 [3]: 700 nM; CC50 [4]: 63000 nM
12 | CCN(C1=C(O)CC(CCc2ccccc2)(C(C)C)OC1=O)c1cccc(NS(=O)(=O)c2ccc(C(F)(F)F)cn2)c1 (stereo not drawn) [Example 3, 5-Trifluoromethyl-pyridine-2-sulfonic acid {3-[ethyl-(4-hydroxy-6-isopropyl-2-oxo-6-phenethyl-5,6-dihydro-2H-pyran-3-yl)-amino]-phenyl}-amide] |  | Ki [2]: 0.96 nM; EC50 [3]: 1100 nM; CC50 [4]: 66000 nM
13 | CCCN(C1=C(O)CC(CCc2ccc(O)cc2)(C(C)C)OC1=O)c1cccc(NS(=O)(=O)c2ccc(C(F)(F)F)cn2)c1 (stereo not drawn) [Example 4, 5-Trifluoromethyl-pyridine-2-sulfonic acid [3-({4-hydroxy-6-[2-(4-hydroxy-phenyl)-ethyl]-6-isopropyl-2-oxo-5,6-dihydro-2H-pyran-3-yl}-propyl-amino)-phenyl]-amide] |  | Ki [2]: 0.01 nM; EC50 [3]: 1100 nM; CC50 [4]: 84000 nM
14 | CCCC1(CCc2ccc(O)cc2)CC(O)=C(N(CC)c2cccc(NS(=O)(=O)c3ccc(C(F)(F)F)cn3)c2)C(=O)O1 (stereo not drawn) [Example 5, 5-Trifluoromethyl-pyridine-2-sulfonic acid [3-(ethyl-{4-hydroxy-6-[2-(4-hydroxy-phenyl)-ethyl]-2-oxo-6-propyl-5,6-dihydro-2H-pyran-3-yl}-amino)-phenyl]-amide] |  | Ki [2]: 0.17 nM; EC50 [3]: 1300 nM; CC50 [4]: 113000 nM
15 | CCN(C1=C(O)CC(CCc2ccc(O)cc2)(C(C)C)OC1=O)c1cccc(NS(=O)(=O)c2ccc(C(F)(F)F)cn2)c1 (stereo not drawn) [Example 6, 5-Trifluoromethyl-pyridine-2-sulfonic acid [3-(ethyl-{4-hydroxy-6-[2-(4-hydroxy-phenyl)-ethyl]-6-isopropyl-2-oxo-5,6-dihydro-2H-pyran-3-yl}-amino)-phenyl]-amide] |  | Ki [2]: 0.44 nM; EC50 [3]: 1300 nM; CC50 [4]: 133000 nM
16 | CCCN(C1=C(O)CC(CCc2ccc(O)cc2)(C(C)C)OC1=O)c1ccccc1 (stereo not drawn) [Example 7, 4-Hydroxy-6-[2-(4-hydroxy-phenyl)-ethyl]-6-isopropyl-3-(phenyl-propyl-amino)-5,6-dihydro-pyran-2-one] | 171 to 173 | Ki [2]: 0.13 nM; EC50 [3]: 1300 nM; CC50 [4]: 200000 nM
17 | CCCN(C1=C(O)CC(CCc2cccc(O)c2)(C2CCCC2)OC1=O)c1ccccc1 (stereo not drawn) [Example 8, 6-Cyclopentyl-4-hydroxy-6-[2-(3-hydroxy-phenyl)-ethyl]-3-(phenyl-propyl-amino)-5,6-dihydro-pyran-2-one] | 74 to 76 | Ki [2]: 0.35 nM; EC50 [3]: 1300 nM; CC50 [4]: 67000 nM
18 | CCCN(C1=C(O)CC(CCc2ccccc2CO)(C(C)C)OC1=O)c1ccccc1 (stereo not drawn) [Example 9, 4-Hydroxy-6-[2-(2-hydroxymethyl-phenyl)-ethyl]-6-isopropyl-3-(phenyl-propyl-amino)-5,6-dihydro-pyran-2-one] | 58 to 60 | Ki [2]: 2 nM; EC50 [3]: 1400 nM; CC50 [4]: 101000 nM
19 | CCCCN(C1=C(O)CC(CCc2ccc(O)cc2)(C(C)C)OC1=O)c1ccccc1 (stereo not drawn) [Example 13, 3-(Butyl-phenyl-amino)-4-hydroxy-6-[2-(4-hydroxy-phenyl)-ethyl]-6-isopropyl-5,6-dihydro-pyran-2-one] | 196 to 198 | Ki [2]: 0.2 nM; EC50 [3]: 1500 nM; CC50 [4]: 156000 nM
20 | CC(C)C1(CCc2ccc(O)cc2)CC(O)=C(N(CCC#N)c2ccccc2)C(=O)O1 (stereo not drawn) [Example 21, 3-({4-Hydroxy-6-[2-(4-hydroxy-phenyl)-ethyl]-6-isopropyl-2-oxo-5,6-dihydro-2H-pyran-3-yl}-phenyl-amino)-propionitrile] | 119 to 121 | Ki [2]: 1.6 nM; EC50 [3]: 2700 nM; CC50 [4]: 320000 nM
21 | CCCN(C1=C(O)CC(CCc2ccccc2)(C(C)C)OC1=O)c1ccccc1 (stereo not drawn) [drawing 7] |  | IC50 ([1]; pH (4.7)): 4 nM; IC50 ([1]; pH (6.2)): 4 nM

Second part, led by results:

Row | melting point [°C] | Compound | also measured
22 | 85 to 87 | CCCN(C1=C(O)CC(CCc2ccc(O)cc2)(C(C)C)OC1=O)c1cccc(NS(=O)(=O)c2cccs2)c1 (stereo not drawn) | 
23 | 83 to 85 | CC(C)C1(CCc2ccc(O)cc2)CC(O)=C(N(c2ccccc2)c2ccccc2)C(=O)O1 (stereo not drawn) | 
24 | 96 to 98 | CCCN(C1=C(O)CC(CCc2ccc(O)cc2)(C(C)C)OC1=O)c1cccc(C(=O)OC)c1 (stereo not drawn) | 
25 | 86 to 88 | CCCN(C1=C(O)CC(CCc2ccc(O)cc2)(C(C)C)OC1=O)c1cc(Cl)cc(Cl)c1 (stereo not drawn) | 
26 | 53 to 55 | CCCN(C1=C(O)CC(CCc2ccsc2)(C(C)C)OC1=O)c1ccccc1 (stereo not drawn) | 
27 | 63 to 65 | CCN(C1=C(O)CC(CCc2ccc(O)cc2)(C(C)C)OC1=O)c1ccccc1 (stereo not drawn) | 
28 | 83 to 85 | CC(C)C1(CCc2ccc(O)cc2)CC(O)=C(N(c2ccccc2)C2CCCC2)C(=O)O1 (stereo not drawn) | 
29 | 95 to 96 | COc1ccc(N(C2=C(O)CC(CCc3ccc(O)cc3)(C(C)C)OC2=O)c2ccccc2)cc1 (stereo not drawn) | 
30 | 179 to 181 | CCCN(C1=C(O)CC(C)(CCc2ccc(O)cc2)OC1=O)c1ccccc1 (stereo not drawn) | 
31 | 95 to 97 | CC(C)C1(CCc2ccc(O)cc2)CC(O)=C(N(c2ccccc2)c2cccc(O)c2)C(=O)O1 (stereo not drawn) | 
32 | 58 to 60 | CCCCC1(CCc2ccc(O)cc2)CC(O)=C(N(CCC)c2ccccc2)C(=O)O1 (stereo not drawn) | 
33 | 74 to 75 | CCCN(C1=C(O)CC(CCc2ccc(O)cc2)(C2CC2)OC1=O)c1ccccc1 (stereo not drawn) | 
34 | 75 to 77 | CC(C)N(C1=C(O)CC(CCc2ccc(O)cc2)(C(C)C)OC1=O)c1ccccc1 (stereo not drawn) | 
35 | 85 to 86 | CC(C)C1(CCc2ccc(O)cc2)CC(O)=C(N(CCO)c2ccccc2)C(=O)O1 (stereo not drawn) | 
36 | 93 to 95 | CCCN(C1=C(O)CC(CCc2ccc3c(c2)OCO3)(C(C)C)OC1=O)c1ccccc1 (stereo not drawn) | 
37 | 70 to 72 | CC(C)CCN(C1=C(O)CC(CCc2ccc(O)cc2)(C(C)C)OC1=O)c1ccccc1 (stereo not drawn) | 
38 | 102 to 104 | CC(C)C1(CCc2ccc(O)cc2)CC(O)=C(N(c2ccccc2)C2CC2)C(=O)O1 (stereo not drawn) | 
39 | 93 to 96 | CCCN(C1=C(O)CC(CCc2ccc(O)cc2)(C(C)C)OC1=O)c1cccc2c(O)cccc12 (stereo not drawn) | 
40 | 97 to 99 | CCN(C1=C(O)CC(CCc2ccc(O)cc2)(C(C)C)OC1=O)c1ccc2ccccc2c1 (stereo not drawn) | 
41 | 86 to 88 | CCN(C1=C(O)CC(CCc2ccc(O)cc2)(C(C)C)OC1=O)c1cccc2ccccc12 (stereo not drawn) | 
42 | 75 to 77 | CC(C)C1(CCc2ccc(O)cc2)CC(O)=C(N(Cc2ccccc2)c2ccccc2)C(=O)O1 (stereo not drawn) | 
43 | 61 to 63 | CCCN(C1=C(O)CC(CCc2ccc(O)cc2)(C(C)C)OC1=O)c1cccc(CO)c1 (stereo not drawn) [19] | 
44 | 71 to 73 | CCCN(C1=C(O)CC(CCc2ccc(O)cc2)(C(C)C)OC1=O)c1cccc(CO)c1 (stereo not drawn) [32] | 
